According to the NIST ThermoML archive (doi:10.1021/je900218z):
Where “and” joins values, the source holds several entries; their conditions need not be identical. Equal entries are not always repeated.

Assay: mn = molality of the nth substance listed, in mol/kg
Conditions: 298.15 K, 101 kPa, Liquid

O=S(=O)([O-])[O-].[Na+].[Na+] [sodium sulfate] + O
Conditions	mass density
m1 = 0.2	1021.93 kg/m3
m1 = 0.4999	1057.3 kg/m3 and 1057.32 kg/m3 and 1057.31 kg/m3
m1 = 0.6999	1079.92 kg/m3 and 1079.94 kg/m3 and 1079.93 kg/m3
m1 = 0.9868	1111.12 kg/m3
m1 = 0.9979	1112.28 kg/m3
m1 = 0.9999	1112.48 kg/m3
m1 = 1.196	1133.04 kg/m3
m1 = 1.2	1133.46 kg/m3 and 1133.45 kg/m3
